Assays:
[1] = biological target: T1, human neurokinin-2 receptor (Homo sapiens, UniProt P21452); assay: Binding affinity to human NK-2 receptor expressed in CHO cells (inhibition of [125I]-NKA or [3H]-NKA binding); details: human neurokinin-2 receptor expressed in CHO cell lines; read-out: Binding affinity, Ki (nM) hNK-2-CHO
T1 construct: expressed in transfected cells; host or cells: CHO
T1 sequence (P21452 1-398): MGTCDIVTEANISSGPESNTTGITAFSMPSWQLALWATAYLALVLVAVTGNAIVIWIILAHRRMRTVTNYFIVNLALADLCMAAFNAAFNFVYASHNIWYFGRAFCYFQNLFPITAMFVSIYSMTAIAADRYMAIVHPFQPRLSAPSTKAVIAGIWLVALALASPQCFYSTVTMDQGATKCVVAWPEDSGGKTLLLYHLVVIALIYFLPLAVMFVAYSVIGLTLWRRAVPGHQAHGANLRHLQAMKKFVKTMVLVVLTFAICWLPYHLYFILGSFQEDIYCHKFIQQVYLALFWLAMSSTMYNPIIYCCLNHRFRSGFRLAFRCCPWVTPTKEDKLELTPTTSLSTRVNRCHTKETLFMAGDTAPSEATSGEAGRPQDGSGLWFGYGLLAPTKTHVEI
Procedure: The activity of the compounds of the present invention, as NK-2 ligands, is determined by their ability to inhibit the binding of the radiolabelled NK-2 ligands, [^125I]-NKA or [^3H]-NKA, to human NK-2 receptors (Aharony et al, 1992, Neuropeptide, 23, 121-130).
The binding assays utilized allow the determination of the concentration of the individual compound required to reduce by 50% the [^125I]-NKA and [^3H]-NKA specific binding to NK2 receptor in equilibrium conditions (IC50).
Binding assays provide for each compound tested a mean IC50 value of 2-5 separate experiments performed in duplicate or triplicate. […] The NK-2-antagonist activity of the compounds of the present invention is determined by their ability to inhibit human NK-2 receptor-mediated Ca^++ mobilization (Mochizuki et al, 1994, J. Biol. Chem., 269, 9651-9658). Human receptor functional assay allows the determination of the concentration of the individual compound required to reduce by 50% (IC50 values) the Ca^++ mobilization induced by the agonist NKA. In this assay, the compounds of the present invention behave as antagonists.

[2] = biological target: T2, human neurokinin-3 receptor (Homo sapiens, UniProt P29371); assay: Binding affinity to human NK-3 receptor expressed in CHO cells (inhibition of [125I]-[Me-Phe7]-NKB or [3H]-Senktide binding); details: human neurokinin-3 receptor expressed in CHO cell lines; read-out: Binding affinity, Ki (nM) hNK-3-CHO
T2 construct: expressed in transfected cells; host or cells: CHO
T2 sequence (P29371 1-465): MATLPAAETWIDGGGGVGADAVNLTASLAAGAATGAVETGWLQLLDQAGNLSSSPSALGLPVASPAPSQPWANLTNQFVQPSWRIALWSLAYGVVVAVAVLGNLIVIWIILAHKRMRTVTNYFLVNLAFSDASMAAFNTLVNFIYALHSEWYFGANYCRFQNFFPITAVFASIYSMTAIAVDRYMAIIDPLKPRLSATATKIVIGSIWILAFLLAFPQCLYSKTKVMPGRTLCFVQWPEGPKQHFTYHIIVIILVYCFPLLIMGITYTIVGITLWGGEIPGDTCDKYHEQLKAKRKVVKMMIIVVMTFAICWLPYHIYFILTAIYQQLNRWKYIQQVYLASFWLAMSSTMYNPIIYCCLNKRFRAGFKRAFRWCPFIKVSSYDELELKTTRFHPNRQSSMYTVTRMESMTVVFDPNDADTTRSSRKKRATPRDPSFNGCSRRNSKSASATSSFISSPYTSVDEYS
Procedure: The activity of the compounds of the present invention, as NK3 ligands, is determined by their ability to inhibit the binding of the radiolabelled NK3 ligands, [^125I]-[Me-Phe^7]-NKB or [^3H]-Senktide, to guinea-pig and human NK3 receptors (Renzetti et al, 1991, Neuropeptide, 18, 104-114; Buell et al, 1992, FEBS, 299(1), 90-95; Chung et al, 1994, Biochem. Biophys. Res. Commun., 198(3), 967-972).
The binding assays utilized allow the determination of the concentration of the individual compound required to reduce by 50% the [^125I]-[Me-Phe^7]-NKB and [^3H]-Senktide specific binding to NK3 receptor in equilibrium conditions (IC50).
Binding assays provide for each compound tested a mean IC50 value of 2-5 separate experiments performed in duplicate or triplicate. […] The NK3-antagonist activity of the compounds of the present invention is determined by their ability to inhibit senktide-induced contraction of the guinea-pig ileum (Maggi et al, 1990, Br. J. Pharmacol., 101, 996-1000) and rabbit isolated iris sphincter muscle (Hall et al., 1991, Eur. J. Pharmacol., 199, 9-14) and human NK3 receptors-mediated Ca^++ mobilization (Mochizuki et al, 1994, J. Biol. Chem., 269, 9651-9658). Guinea-pig and rabbit in-vitro functional assays provide for each compound tested a mean KB value of 3-8 separate experiments, where KB is the concentration of the individual compound required to produce a 2-fold rightward shift in the concentration-response curve of senktide. Human receptor functional assay allows the determination of the concentration of the individual compound required to reduce by 50% (IC50 values) the Ca^++ mobilization induced by the agonist NKB. In this assay, the compounds of the present invention behave as antagonists.

CC[C@H](NC(=O)c1c(CN2CCC(=O)C2)c(-c2ccccc2)nc2ccccc12)c1ccccc1 [Example 34, (S)-N-(α-ethylbenzyl)-3-[(3-oxo)pyrrolidin-1-ylmethyl]-2-phenylquinoline-4-carboxamide]
Ki [1]: 38 nM
Ki [2]: 1.5 nM
melting point: 142 to 145 °C

CC[C@H](NC(=O)c1c(CN2CCN(CC)CC2)c(-c2ccccc2)nc2ccccc12)c1ccccc1 [Example 36]
Ki [1]: 12.7 nM
Ki [2]: 1.7 nM
melting point: 75 to 78 °C

CC[C@H](NC(=O)c1c(CN2CCN(CCc3ccccc3)CC2)c(-c2ccccc2)nc2ccccc12)c1ccccc1 [Example 37]
Ki [1]: 0.9 nM
Ki [2]: 0.8 nM
melting point: 158 to 160 °C

CC(C)[C@H](NC(=O)c1c(CN(C)C)c(-c2ccccc2)nc2ccccc12)c1ccccc1 [Example 41]
Ki [1]: 56.7 nM
Ki [2]: 3.3 nM
melting point: 117 to 120 °C

CC(C)[C@H](NC(=O)c1c(CN2CCN(C(C)C)CC2)c(-c2ccccc2)nc2ccccc12)c1ccccc1 [Example 43]
Ki [1]: 1.2 nM
Ki [2]: 1 nM
melting point: 125 to 130 °C

From patent US20010012846A1, “Quinoline-4-carboxamide derivatives as NK-2 and NK-3 receptor antagonists” (priority 1997, published 2001)
